Laboratory results published in paper PMC2662877, “A novel method for screening the glutathione transferase inhibitors” (BMC Biochemistry, 2009).
No end group written: not given here.

What was measured:
GST [1] = target: T1, GST (Schistosoma japonicum, UniProt P08515); experiment: biochemical; assay type: biochemical; conditions: inhibitor 1 μM, DCNB 1 mM, glutathione 1 mM, 25°C; for Specific GST activity: mean ± SD of triplicate, control 4.51 ± 0.02
T1 construct: purchased Sigma-Aldrich

GST [2] = target: T1, GST; experiment: biochemical; assay type: biochemical; conditions: for Specific GST activity: mean ± SD of triplicate, control 2.80 ± 0.01; for order of inhibition efficiencies: with the use of CDNB or DCNB as the substrates, inhibitors 1 μM; for inhibition of GST activity, in words: control peptides, CDNB or DCNB as substrates
Experimental: Figure 3 Effects of F1 and F2 peptides on the activity of GST (μmol/mg/min). The activity was measured by monitoring the GST activity with different peptide concentrations, 1 mM glutathione (GSH) and 1 mM CDNB in 100 mM potassium phosphate buffer (pH6.5) at 25°C.
(§1) The peptide concentration resulting in 50% inhibition (IC50) was determined from a plot of remaining activity versus peptide concentration. Protein concentration was measured according to the Lowry method. Enzyme inhibitory kinetic studies were carried out using various concentrations of glutathione and CDNB and different concentrations of synthetic peptides (0.8, 1.6, 3.2 μM).

GST [3] = conditions: first-generation GST inhibitors; no reference given; cited from earlier work
Source text: (§2) The development of resistance to anticancer agents is a primary concern in cancer chemotherapy.

[4] = tested on: cancer cell lines with increased GST expression; conditions: ref [25]; cited from earlier work
Source text: as §2

[5] = binding of synthesized peptides to glutathione Sepharose 4B beads; conditions: for binding to glutathione Sepharose 4B beads, in words: control peptides lacking glutathione-interacting residues
Experimental: The binding characteristics of selected peptides to glutathione were determined according to the analysis of binding of synthesized peptides to the glutathione Sepharose 4B beads. The amount of glutathione in the glutathione Sepharose 4B beads was estimated according to the assumption (according to the manufacturere's information) that there are about 200–400 μmol glutathione/g dried beads. An average value of 300 μmol glutathione/g dried beads was used to calculate the amount of glutathione in the glutathione Sepharose 4B beads. In our experiments, appropriate amount of wet glutathione Sepharose 4B beads (equal to 1 mg dry beads) was added to a 1.5 ml Eppendorf tube, and different amounts of synthesized peptides were added into the tube. After binding for 10 min at 37°C, the binding complexes were separated by centrifugation (12,000 × g for 10 min) and concentrations of bound and free peptides were determined by using the Lowry method. Scatchard analysis was used to determine the Kd and Bmax values. Bmax means the maximum binding sites of synthesized peptide on glutathione Speharose 4B beads (μmol peptide/μmol glutathione). Kd is a dissociation constant (pM). Thus, a low Kd value indicates a high affinity.

GST [6] = target: T1, GST; experiment: biochemical; assay type: biochemical; conditions: for effect on Vmax and Km, in words: changing glutathione and peptide concentrations
Experimental: To obtain information on the nature of the inhibition by F1 and F2 peptides, GST activity was measured with variable concentrations of glutathione. Here, we applied a new model in describing enzyme inhibitor (Fig. 4).
The Lineweaver-Burk plot for glutathione as the variable peptide concentration was applied to determine the types of inhibition caused by F1 and F2 peptides. The plot provides a useful graphical method for analysis of the Michaelis-Menten equation. The effects of the peptide on GST-catalyzed reaction kinetics were determined by analysis of apparent Vmax, inhibitor constant Ki and [I]/Ki values.
Figure 5 Lineweaver-Burk plot of the GST activity with varying glutathione (GSH) concentrations. A): The activity was measured with 1 mM CDNB, and different concentrations of GSH, and the F1 peptide. B): The activity was measured with 1 mM CDNB, and different concentrations of GSH, and the F2 peptide.
as §1

[7] = control 100%, % sign missing in F1 cell
[8] = inhibitor 1 μM, CDNB 1 mM, glutathione 1 mM, 25°C, control 100%
[9] = inhibitor 1 μM, CDNB 1 mM, glutathione 1 mM, 25°C
[10] = after elution with elution buffer
[11] = before elution, ratio of peptide concentrations after and before binding

T1 sequence (P08515 whole entry): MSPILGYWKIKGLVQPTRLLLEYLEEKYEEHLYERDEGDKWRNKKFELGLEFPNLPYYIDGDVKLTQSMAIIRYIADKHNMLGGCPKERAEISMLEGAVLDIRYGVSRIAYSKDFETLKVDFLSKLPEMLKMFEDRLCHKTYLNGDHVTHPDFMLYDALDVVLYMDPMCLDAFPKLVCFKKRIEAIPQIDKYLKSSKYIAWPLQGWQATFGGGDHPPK

Nc1c(S(=O)(=O)O)cc(Nc2ccc(Nc3nc(Cl)nc(Nc4ccccc4S(=O)(=O)O)n3)c(S(=O)(=O)O)c2)c2c1C(=O)c1ccccc1C2=O [cibacron blue]
remaining activity at 1 µM (GST [1]; [7]): 21.3%
Specific GST activity (GST [1]): 0.96 ± 0.01 units/mg
remaining activity at 1 µM (GST [2]; [8]): 18.3%
Specific GST activity (GST [2]; [9]): 0.51 ± 0.01 units/mg
order of inhibition efficiencies (GST [2]): tannic acid > cibacron blue > F2 peptide > hematin > F1 peptide > ethacrynic acid

C=C(CC)C(=O)c1ccc(OCC(=O)O)c(Cl)c1Cl [ethacrynic acid]
Specific GST activity (GST [1]): 3.66 ± 0.02 units/mg
outcome in clinical trials (GST [3]): unsuccessful in clinical trials
Specific GST activity (GST [2]; [9]): 1.54 ± 0.01 units/mg

C=CC1=C(C)c2cc3[n-]c(cc4[n-]c(cc5nc(cc1n2)C(C)=C5C=C)c(C)c4CCC(=O)O)c(CCC(=O)O)c3C.O.[Fe+2] [hematin]
GST activity remaining, % of control (GST [1]; [7]): 42.1%
Specific GST activity (GST [1]): 1.90 ± 0.02 units/mg
GST activity remaining, % of control (GST [2]; [8]): 35.2%
Specific GST activity (GST [2]; [9]): 0.99 ± 0.01 units/mg
order of inhibition efficiencies (GST [2]): tannic acid > cibacron blue > F2 peptide > hematin > F1 peptide > ethacrynic acid

C=C[C@H]1C[N@@]2CC[C@H]1C[C@H]2[C@H](O)c1ccnc2ccc(OC)cc12 [quinine]
reversal of resistance to melphalan and doxorubicin [4]: reported to reverse the resistance to melphalan and doxorubicin

GKIKGV [F3 peptide, control peptide F3, lacking Tyr6, Trp7 and Leu12]
Binding efficiency [5, 10]: 1.2%
Binding efficiency [5, 11]: 1.2%
binding to glutathione Sepharose 4B beads, in words [5]: could not bind efficiently
inhibition of GST activity, in words (GST [2]): could not find any significant inhibition of the GST activity

GYWKIKGLV [F1 peptide]
Ki (GST [6]; F1 peptide 0.8 μM, noncompetitive): 4000 nM
Ki (GST [6]; F1 peptide 1.6 μM, noncompetitive): 4570 nM
Ki (GST [6]; F1 peptide 3.2 μM, noncompetitive): 5820 nM
effect on Vmax and Km, in words (GST [6]): Vmax decreased while Km remained unchanged
IC50 (GST [2]): 800 nM

KWNKFELGLEFPL [F4 peptide, control peptide F4, lacking Arg41, Lys44 and Asn53 residues]
Binding efficiency [5, 10]: 2.5%
Binding efficiency [5, 11]: 2.6%
binding to glutathione Sepharose 4B beads, in words [5]: could not bind efficiently
inhibition of GST activity, in words (GST [2]): could not find any significant inhibition of the GST activity

KWRNKKFELGLEFPNL [F2 peptide]
Ki (GST [6]; F2 peptide 0.8 μM, competitive): 1530 nM
Ki (GST [6]; F2 peptide 1.6 μM, competitive): 1600 nM
Ki (GST [6]; F2 peptide 3.2 μM, competitive): 2420 nM
effect on Vmax and Km, in words (GST [6]): Km decreased while Vmax remained unchanged
IC50 (GST [2]): 600 nM

tannic acid
GST activity remaining, % of control (GST [1]; [7]): 10.9%
Specific GST activity (GST [1]): 0.49 ± 0.01 units/mg
GST activity remaining, % of control (GST [2]; [8]): 5.6%
Specific GST activity (GST [2]; [9]): 0.16 ± 0.01 units/mg
order of inhibition efficiencies (GST [2]): tannic acid > cibacron blue > F2 peptide > hematin > F1 peptide > ethacrynic acid
